Experimental data published in article PMC9230136 (Pharmaceutics, 2022).
Read-outs that look alike come from different tables or passages of the source.

Tests used:
[1] = system: quiescent PBLs; assay: Cytotoxicity in human PBLs, resting; type: cell-based; settings: PBL not stimulated with PHA, 72 h, read-out: IC50 PBLresting
Description: (§1) Human PBLs were obtained from healthy donors by separation on a Lymphoprep^TM (Serumwerk Bernburg AG) gradient and were used for the evaluation of the cytotoxic potential of compounds under study in normal human cells. Buffy coats were obtained from the Blood Transfusion Service, Azienda Ospedaliera of Padova and provided at this institution for research purposes without identifier. The samples were not obtained specifically for this study, and for this reason ethical approval was not required. Informed consent was obtained from blood donors according to Italian law no. 219 (21 October 2005). Data were treated by the Blood Transfusion Service according to Italian law on personal data management “Codice in materia di protezione dati personali” (Testo Unico D.L. Giugno 30, 2003 196).
(§2) After extensive washing with saline solution (BioConcept, Hank’s Buffered Saline Solution), quiescent PBLs were resuspended (1.0 × 10^6 cells/mL) in RPMI-1640 medium supplemented with 10% fetal bovine serum. Cytotoxicity evaluations were conducted also in cultures of proliferating PBLs, stimulated with […] PHA (Irvine Scientific). Both resting and proliferating lymphocytes were seeded in 96-well plates and maintained overnight at 37 °C in a humidified 5% CO2 incubator. Serial (5-fold) dilutions of the tested compounds were added, and viability was determined 72 h later by the resazurin viability assay as described above.

[2] = system: A549, MDA-MB-231, HeLa, HT-29 and Jurkat cancer cell lines; assay: Antiproliferative activity over the panel of cancer cell lines; type: cell-based, human
Protocol: Colon adenocarcinoma (HT-29) and T-cell leukemia (Jurkat) cells were grown in RPMI-1640 medium (Gibco, Milano, Italy). Promyelocytic leukemia cells (HL-60), non-small cell lung carcinoma (A549), cervix carcinoma (HeLa) and breast adenocarcinoma (MDA-MB-231) cells were grown in DMEM medium (Gibco, Milano, Italy). Both media were supplemented with 115 units/mL of penicillin G (Gibco, Milano, Italy), 115 μg/mL of streptomycin (Invitrogen, Milano, Italy) and 10% fetal bovine serum (Invitrogen, Milano, Italy). All the cell lines used were purchased from the American Type Culture Collection (ATCC, Manassas, VA, USA). Stock solutions (10 mM) of the compounds were obtained by dissolving them in DMSO.
The cells were seeded in 96-well plates at the appropriate density for each cell line. After 24 h, the cells were treated by performing serial 5-fold dilutions of the tested compounds starting from a concentration of 10 μM. All experimental conditions were tested in triplicate for statistical analysis. The plates were incubated for 72 h at 37 °C in a humidified 5% CO2 atmosphere. At the end of the incubation period, 10 μL of 100 μg/mL resazurin solution was added to each well; then, the plate was re-incubated for 3–4 h. The fluorescence of the wells in each plate was monitored using a Spark 10 M spectrophotometer (Tecan Group Ltd., Mannedorf, Switzerland) with a 535 nm excitation wavelength and a 600 nm emission wavelength.

[3] = system: Zebrafish embryos; assay: Acute toxicity assessment in zebrafish embryos; type: in vivo, Danio rerio; settings: 100 nM
Protocol: Zebrafish embryos at 72 h post fertilization (hpf) were selected for the acute toxicity assay since, at that time, morphogenesis and function of the primary organ systems are complete. Embryos at 72 hpf were assayed in a 12-well plate, 20 larvae/well for each experimental condition.
The zebrafish embryos were treated as described in the Biological Results and Discussion section using drug concentrations selected on the basis of in vitro experimental data. The drugs were added directly to the fish water from 10 mM stock solutions in DMSO of tested compounds. […] CA-4P was employed as the reference compound.
The experiment was carried out at a constant temperature (28.5 °C) in the dark, and at 24 and 48 h time points, zebrafish were subjected to visual observation and image acquisition under a stereomicroscope (Nikon SMZ745T; Nikon, Japan). The number of dead zebrafish embryos for each condition was recorded, and morphological defects were evaluated. The survival rate (%) after treatment was calculated.

[4] = system: Bovine brain tubulin; assay: Inhibition of tubulin polymerization; type: biochemical
Protocol: (§3) Bovine brain tubulin was purified as described previously. To evaluate the effects of the compounds on tubulin assembly in vitro [35], varying concentrations were preincubated with 10 μM tubulin in 0.8 M monosodium glutamate (pH 6.6) at 30 °C and the reaction mixtures then cooled to 0 °C. After addition of GTP, the mixtures were transferred to 0 °C cuvettes in Beckman Coulter (Brea, CA, USA) DU-7400/DU-7500 recording spectrophotometers equipped with electronic temperature controllers and warmed to 30 °C, and the assembly of tubulin was observed turbidimetrically. […] Inhibition of colchicine binding to tubulin was measured as described before, except that the reaction mixtures contained 0.5 μM tubulin and 5 μM each of [^3H]colchicine and test compound. Only one DEAE-cellulose filter was used per sample, and filtration was by gravity.

[5] = system: Bovine brain tubulin; assay: Inhibition of [3H]colchicine binding to tubulin; settings: tubulin 0.5 µM, [3H]colchicine 5 µM, compound 5 µM
Protocol: as §3

[6] = system: MDA-MB-231; assay: Antiproliferative assay (resazurin, 72 h); type: cell-based, human; settings: mean ± SE, 72 h
Outline: (§4)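 Seed cells; after 24 h add compounds (10 mM DMSO stocks, diluted 5-fold serially from 10 μM). Incubate 72 h, then add resazurin for 3–4 h and measure fluorescence (535/600 nm). HT-29 was grown in RPMI-1640 and the others in DMEM, with 10% FBS.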

[7] = system: Jurkat; assay: Antiproliferative assay (resazurin, 72 h); type: cell-based, human
Outline: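 Jurkat T-cell leukemia cells, grown in RPMI-1640 containing 10% fetal bovine serum, 115 units/mL penicillin G and 115 μg/mL streptomycin, were plated in 96-well plates. After 24 h they received serial 5-fold dilutions of test compounds starting at 10 μM, in triplicate, and were kept 72 h at 37 °C in 5% CO2.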

[8] = system: HeLa; assay: Antiproliferative assay (resazurin, 72 h); type: cell-based, human
Outline: as §4

[9] = design: method as in PMID 31459105; settings: cited from earlier work
[10] = system: PBL stimulated with PHA; assay: Cytotoxicity in human PBLs stimulated with PHA; type: cell-based; settings: 72 h, read-out: IC50 PBLPHA
Description: as §1, §2

[11] = design: method as in PMID 31459105; settings: cited from earlier work; remark: listed apart in the source
[12] = system: HeLa cells; assay: Cell cycle analysis (PI, flow cytometry); type: cell-based, human; settings: 24 h; for cells arrested in the G2/M phase: 100 nM
Protocol: HeLa cells were seeded at 100,000 cells per well on 6-well tissue culture plates. After 24 h, cells were treated with different test compound concentrations or DMSO for another 24 h. Cells were then fixed and stained with propidium iodide (PI). The fluorescence intensity of 10,000 single-cell events was measured with a Beckman Coulter Cytomics FC500 instrument (Beckman Coulter Italia, Milano, Italy) and the data were analyzed with MultiCycle for Windows software from Phoenix Flow Systems (San Diego, CA, USA).

[13] = system: HeLa cells; assay: Apoptosis by annexin-V-FITC/PI flow cytometry; type: cell-based, human
Protocol: Surface exposure of phosphatidylserine on apoptotic cells was measured by flow cytometry with a Beckman Coulter Cytomics FC500 (Beckman Coulter Italia, Milano, Italy) by adding annexin-V conjugated to fluorescein isothiocyanate (FITC) to cells according to the manufacturer’s instructions (Annexin-V Fluos, Roche Diagnostic, Monza, Italy). Simultaneously, the cells were stained with PI. Excitation was set at 488 nm, and the emission filters were at 525 and 585 nm, respectively, for FITC and PI.

[14] = system: HeLa cells; assay: ROS production (H2DCFDA); type: cell-based, human; settings: 10, 50 or 100 nM; 24 h
Protocol: (§5) The mitochondrial potential was evaluated in HeLa cells by flow cytometry using the cell membrane permeable cationic dye 5,5′,6,6′-tetrachloro-1,1′,3,3′-tetraethyl-imidacarbocyanine iodide (JC-1) (Molecular Probes) as described previously. The production of ROS was measured in HeLa cells by flow cytometry using 2′,7′-dichlorodihydrofluorescein diacetate (H2DCFDA) (Molecular Probes) as described previously.

[15] = system: HT-29; assay: Antiproliferative assay (resazurin, 72 h); type: cell-based, human
Outline: as §4

[16] = system: A549; assay: Antiproliferative assay (resazurin, 72 h); type: cell-based, human
Outline: as §4

[17] = system: HeLa cells; assay: Mitochondrial membrane potential (JC-1); type: cell-based, human; settings: Figure 8A representative plot; concentration not given
Protocol: as §5

[18] = system: HeLa cells; assay: EdU cell proliferation assay; type: cell-based, human; settings: 25 or 50 nM; 24 h
Protocol: HeLa cells were seeded in a 6-well plate and, after a 24 h incubation, were treated with the desired compounds as indicated in the Biological Results and Discussion section. Cells were re-incubated for one day and then labeled with EdU (10 μM) for 3 h under cell culture conditions. Cells were harvested by centrifugation before proceeding with the fixation step using 3.7% formaldehyde. Next, permeabilization with 0.5% Triton X-100 was performed. The reaction cocktail was prepared and added to each well (100 μL/well) following the manufacturer’s instructions (EdU-Click 488, base click, Sigma-Aldrich. Milano Italy), and the plate was incubated at room temperature for 30 min in the dark. Cells were washed 2 times with phosphate-buffered saline (PBS) before reading samples with a Beckman Coulter Cytomics FC500 instrument (λex/λem = 496/516 nm).

[19] = tubulin at 10 μM, read-out: Tubulin Assembly IC50 ± SD

With `COc1ccc(/C=C\c2cc(OC)c(OC)c(OC)c2)cc1O` [CA-4, combretastatin A-4, reference compound] the IC50 ([1]; Homo sapiens) was > 10000 nM, the IC50 ([2]; Homo sapiens, against three of the five lines (not A549, HT-29), read-out: IC50's, range) was 1 to 5 nM and the “lethality” value [3] was 100%. For the same compound, the “Results (toxicity evaluation)” value ([3]; 72 hpf embryos) was “Toxic”, the IC50 [4, 19] was […] and the “Colchicine Binding % Inhibition ± SD” value [5] was 97 ± 0.1%. It also gave an IC50 ([6]; Homo sapiens, MDA-MB-231, Table 1) of 5 ± 2 nM, an IC50 ([7]; Homo sapiens, Jurkat, Table 1, mean ± SE, 72 h) of 1 ± 0.2 nM and an IC50 ([8]; Homo sapiens, HeLa, Table 1, mean ± SE) of 4 ± 1 nM. The biological half-life [9] was “short biological half-life”, the IC50 ([10]; Homo sapiens) was 18.6 ± 3.8 nM and the aqueous solubility [11] was “very poor aqueous solubility”.
In the case of `COc1cc(Nc2cc(C)nc3nc(NCCCc4ccccc4)nn23)cc(OC)c1OC` [Compound 7ad], the “cells arrested in the G2/M phase” value [12] is reported as “more than 70%”, the “concentration at which G2/M arrest began” value [12] is reported as 25 nM and the IC50 [1] is reported as > 10000 nM. For the same compound, the IC50 ([2]; four of the five cell lines, read-out: IC50 values against four of the five cell lines) was < 1000 nM, the “concentration from which apoptosis was induced” value [13] was 50 nM and the IC50 [4, 19] was 380 ± 60 nM. The “Colchicine Binding % Inhibition ± SD” value [5] was 55 ± 3%, the ROS production [14] was “significantly increased ROS production in a dose-dependent manner” and the IC50 ([6]; Table 1) was 91 ± 8 nM. It also gave an IC50 [15] of 142 nM, an IC50 ([15]; Table 1, mean ± SE, 72 h) of 140 ± 11 nM and an IC50 ([16]; Table 1, mean ± SE) of 190 ± 20 nM. For the same compound, the IC50 [7] was > 2000 nM, the IC50 ([7]; Table 1, mean ± SE, 72 h) was 2720 ± 130 nM and the IC50 ([8]; Table 1, mean ± SE) was 67 ± 7 nM. For the same compound, the “Monomers (%) (monomeric JC-1)” value [17] was 33.4%, the IC50 [10] was > 10000 nM and the “EdU incorporation / cell proliferation” value [18] was “effective in reducing HeLa cell proliferation”.
In the case of `Cc1cc(Nc2ccc(F)c(Cl)c2)n2nc(NCCCc3ccccc3)nc2n1` [Compound 8r, N^7-(3-Chloro-4-fluorophenyl)-5-methyl-N^2-(3-phenylpropyl)-[1,2,4]triazolo [1,5-a]pyrimidine-2,7-diamine], the “cells arrested in the G2/M phase” value [12] is reported as “more than 70%”, the “concentration at which G2/M arrest began” value [12] is reported as 25 nM and the IC50 ([1]; Homo sapiens) is reported as > 10000 nM. The IC50 ([2]; Homo sapiens, mean over the five cancer cell lines, read-out: mean IC50 (antiproliferative activity)) was 101 nM, the “concentration from which apoptosis was induced” value [13] was 50 nM and the “fold more potent than CA-4, tubulin polymerization” value [4] was “about 2 fold”. The IC50 ([4]; read-out: IC50 tubulin polymerization) was 390 nM, the IC50 [4, 19] was 520 ± 60 nM and the “Colchicine Binding % Inhibition ± SD” value [5] was 87 ± 0.8%. The ROS production [14] was “significantly increased ROS production in a dose-dependent manner”, the IC50 ([6]; Homo sapiens, MDA-MB-231, Table 2) was 98 ± 20 nM and the IC50 ([15]; Homo sapiens, HT-29, Table 2, mean ± SE, 72 h) was 58 ± 10 nM. For the same compound, the IC50 ([16]; Homo sapiens, A549, Table 2, mean ± SE) was 81 ± 2 nM, the IC50 ([7]; Homo sapiens, Jurkat, Table 2, mean ± SE, 72 h) was 230 ± 20 nM and the IC50 ([8]; Homo sapiens, HeLa, Table 2, mean ± SE) was 35 nM. The “Monomers (%) (monomeric JC-1)” value [17] was 16.6%, the IC50 ([10]; Homo sapiens) was > 10000 nM and the “EdU incorporation / cell proliferation” value [18] was “effective in reducing HeLa cell proliferation”. It also gave a melting point of 168 to 170 °C.
